According to the NIST ThermoML archive (doi:10.1016/j.jct.2015.04.030):
Numbers after ± are expanded uncertainties.

Experiment: excess molar enthalpy (molar enthalpy of mixing); xn = mol fraction of the nth substance listed
Conditions: 100 kPa, Liquid, Calvet calorimetry

NCCNCCNCCN [1,2-ethanediamine, N,N'-bis(2-aminoethyl)-] + O
Conditions	excess molar enthalpy [kcal/mol]
303.15 K, x1 = 0.0497	-0.671 ± 0.0151
303.15 K, x1 = 0.0697	-0.889 ± 0.0194
303.15 K, x1 = 0.1129	-1.25 ± 0.0263
303.15 K, x1 = 0.2006	-1.57 ± 0.0335
303.15 K, x1 = 0.2478	-1.62 ± 0.0335
303.15 K, x1 = 0.3031	-1.6 ± 0.0335
303.15 K, x1 = 0.3527	-1.55 ± 0.0335
303.15 K, x1 = 0.4038	-1.4 ± 0.0287
303.15 K, x1 = 0.5069	-1.15 ± 0.0239
303.15 K, x1 = 0.589	-0.974 ± 0.0208
303.15 K, x1 = 0.701	-0.71 ± 0.0151
323.15 K, x1 = 0.0496	-0.633 ± 0.0141
323.15 K, x1 = 0.1103	-1.2 ± 0.0263
323.15 K, x1 = 0.1998	-1.44 ± 0.0311
323.15 K, x1 = 0.2469	-1.5 ± 0.0311
323.15 K, x1 = 0.3041	-1.49 ± 0.0311
323.15 K, x1 = 0.4041	-1.32 ± 0.0287
323.15 K, x1 = 0.4995	-1.11 ± 0.0237
323.15 K, x1 = 0.602	-0.91 ± 0.0194
323.15 K, x1 = 0.7006	-0.636 ± 0.0136

NCCOCCO [2-(2-aminoethoxy)ethanol] + O
Conditions	excess molar enthalpy [kcal/mol]
303.15 K, x1 = 0.0626	-0.24 ± 0.00526
303.15 K, x1 = 0.1041	-0.355 ± 0.00765
303.15 K, x1 = 0.1949	-0.509 ± 0.0108
303.15 K, x1 = 0.3027	-0.551 ± 0.0117
303.15 K, x1 = 0.3448	-0.565 ± 0.012
303.15 K, x1 = 0.398	-0.556 ± 0.012
303.15 K, x1 = 0.5045	-0.483 ± 0.0103
303.15 K, x1 = 0.604	-0.414 ± 0.00884
303.15 K, x1 = 0.7062	-0.333 ± 0.00717
303.15 K, x1 = 0.8105	-0.223 ± 0.00478
303.15 K, x1 = 0.9035	-0.11 ± 0.00239
323.15 K, x1 = 0.0628	-0.222 ± 0.00478
323.15 K, x1 = 0.1062	-0.335 ± 0.00717
323.15 K, x1 = 0.1982	-0.468 ± 0.01
323.15 K, x1 = 0.3017	-0.527 ± 0.0112
323.15 K, x1 = 0.342	-0.539 ± 0.0115
323.15 K, x1 = 0.4004	-0.527 ± 0.0112
323.15 K, x1 = 0.5053	-0.483 ± 0.0103
323.15 K, x1 = 0.5967	-0.417 ± 0.00884
323.15 K, x1 = 0.7043	-0.329 ± 0.00693
323.15 K, x1 = 0.8037	-0.224 ± 0.00478
323.15 K, x1 = 0.9032	-0.107 ± 0.00239

CN(C)CCN(C)CCO [2-{[2-(dimethylamino)ethyl](methyl)amino}ethanol] + O
303.15 K
Conditions	excess molar enthalpy [kcal/mol]
x1 = 0.1012	-0.696 ± 0.0148
x1 = 0.2028	-0.863 ± 0.0184
x1 = 0.25	-0.894 ± 0.0191
x1 = 0.3015	-0.862 ± 0.0184
x1 = 0.4004	-0.836 ± 0.0177
x1 = 0.4989	-0.716 ± 0.0153

CN(C)CCCO [3-dimethylamino-1-propanol] + O
Conditions	excess molar enthalpy [kcal/mol]
303.15 K, x1 = 0.0505	-0.252 ± 0.0055
303.15 K, x1 = 0.1027	-0.436 ± 0.00932
303.15 K, x1 = 0.1998	-0.601 ± 0.0129
303.15 K, x1 = 0.3003	-0.683 ± 0.0146
303.15 K, x1 = 0.3515	-0.689 ± 0.0148
303.15 K, x1 = 0.3975	-0.69 ± 0.0148
303.15 K, x1 = 0.5019	-0.647 ± 0.0139
303.15 K, x1 = 0.6483	-0.502 ± 0.0108
303.15 K, x1 = 0.8001	-0.301 ± 0.00645
303.15 K, x1 = 0.9452	-0.0951 ± 0.00215
323.15 K, x1 = 0.0495	-0.229 ± 0.00502
323.15 K, x1 = 0.1003	-0.35 ± 0.00765
323.15 K, x1 = 0.1782	-0.485 ± 0.0105
323.15 K, x1 = 0.3006	-0.587 ± 0.0127
323.15 K, x1 = 0.3485	-0.597 ± 0.0127
323.15 K, x1 = 0.3981	-0.6 ± 0.0129
323.15 K, x1 = 0.4977	-0.568 ± 0.0122
323.15 K, x1 = 0.6455	-0.438 ± 0.00932
323.15 K, x1 = 0.7962	-0.269 ± 0.00574
323.15 K, x1 = 0.9446	-0.0743 ± 0.00167

CCN(CC)CCO [(diethylamino)ethanol] + O
Conditions	excess molar enthalpy [kcal/mol]
303.15 K, x1 = 0.0504	-0.253 ± 0.0055
303.15 K, x1 = 0.1001	-0.377 ± 0.00813
303.15 K, x1 = 0.2008	-0.522 ± 0.0112
303.15 K, x1 = 0.301	-0.607 ± 0.0129
303.15 K, x1 = 0.3688	-0.62 ± 0.0131
303.15 K, x1 = 0.387	-0.625 ± 0.0134
303.15 K, x1 = 0.4002	-0.621 ± 0.0134
303.15 K, x1 = 0.4522	-0.611 ± 0.0131
303.15 K, x1 = 0.5002	-0.598 ± 0.0129
303.15 K, x1 = 0.5998	-0.528 ± 0.0112
303.15 K, x1 = 0.7003	-0.418 ± 0.00908
303.15 K, x1 = 0.8007	-0.288 ± 0.00621
303.15 K, x1 = 0.901	-0.144 ± 0.00311
323.15 K, x1 = 0.0502	-0.192 ± 0.0043
323.15 K, x1 = 0.1009	-0.296 ± 0.00645
323.15 K, x1 = 0.1951	-0.407 ± 0.00884
323.15 K, x1 = 0.3002	-0.482 ± 0.0103
323.15 K, x1 = 0.369	-0.499 ± 0.0108
323.15 K, x1 = 0.4006	-0.502 ± 0.0108
323.15 K, x1 = 0.5005	-0.477 ± 0.0103
323.15 K, x1 = 0.6	-0.422 ± 0.00908
323.15 K, x1 = 0.6191	-0.386 ± 0.00837
323.15 K, x1 = 0.6997	-0.341 ± 0.00741
323.15 K, x1 = 0.8005	-0.252 ± 0.0055
323.15 K, x1 = 0.9006	-0.12 ± 0.00263

CN(C)CCN(C)CCN(C)C [N,N,N',N'',N''-pentamethyldiethylenetriamine] + O
excess molar enthalpy [kcal/mol]
Conditions	303.15 K	323.15 K
x1 = 0.0486	-0.641 ± 0.0139	–
x1 = 0.0506	–	-0.561 ± 0.0122
x1 = 0.099	-0.948 ± 0.0203	–
x1 = 0.1024	–	-0.825 ± 0.0177
x1 = 0.15	-1.03 ± 0.022	-0.908 ± 0.0194
x1 = 0.2	–	-0.951 ± 0.0203
x1 = 0.2072	-1.08 ± 0.0229	–
x1 = 0.2492	-1.05 ± 0.0225	–
x1 = 0.25	–	-0.927 ± 0.0198
x1 = 0.3	-1 ± 0.0213	–
x1 = 0.3062	–	-0.869 ± 0.0186
x1 = 0.4001	–	-0.77 ± 0.0165
x1 = 0.4063	-0.841 ± 0.0179	–
x1 = 0.4895	-0.727 ± 0.0155	–
x1 = 0.5005	–	-0.618 ± 0.0131
x1 = 0.6001	–	-0.478 ± 0.0103
x1 = 0.6117	-0.538 ± 0.0115	–

NCCNCCO [N-(2-aminoethyl)ethanolamine] + O
303.15 K
Conditions	excess molar enthalpy [kcal/mol]
x1 = 0.1031	-0.554 ± 0.012
x1 = 0.202	-0.863 ± 0.0184
x1 = 0.3019	-0.963 ± 0.0206
x1 = 0.3567	-0.995 ± 0.0213
x1 = 0.4023	-0.957 ± 0.0203
x1 = 0.4991	-0.88 ± 0.0186
x1 = 0.5997	-0.74 ± 0.0158
x1 = 0.7027	-0.579 ± 0.0124

NCCCNCCCN [bis(3-aminopropyl)amine] + O
excess molar enthalpy [kcal/mol]
Conditions	303.15 K	323.15 K
x1 = 0.0507	–	-0.581 ± 0.0129
x1 = 0.0508	-0.621 ± 0.0136	–
x1 = 0.1064	–	-1.05 ± 0.0225
x1 = 0.1065	-1.11 ± 0.0237	–
x1 = 0.1991	–	-1.43 ± 0.0311
x1 = 0.1993	-1.52 ± 0.0335	–
x1 = 0.3005	-1.57 ± 0.0335	-1.48 ± 0.0311
x1 = 0.4049	-1.47 ± 0.0311	–
x1 = 0.4057	–	-1.34 ± 0.0287
x1 = 0.4998	-1.33 ± 0.0287	–
x1 = 0.5003	–	-1.21 ± 0.0263
x1 = 0.602	-1.09 ± 0.0234	–
x1 = 0.6022	–	-0.916 ± 0.0196
x1 = 0.6842	-0.83 ± 0.0177	-0.744 ± 0.0158
x1 = 0.8014	–	-0.463 ± 0.01
x1 = 0.8015	-0.534 ± 0.0115	–

NCCNCCN [di(2-aminoethyl)amine] + O
Conditions	excess molar enthalpy [kcal/mol]
303.15 K, x1 = 0.0509	-0.542 ± 0.0122
303.15 K, x1 = 0.1001	-0.981 ± 0.021
303.15 K, x1 = 0.1544	-1.33 ± 0.0287
303.15 K, x1 = 0.1962	-1.48 ± 0.0311
303.15 K, x1 = 0.2416	-1.56 ± 0.0335
303.15 K, x1 = 0.3018	-1.59 ± 0.0335
303.15 K, x1 = 0.4026	-1.52 ± 0.0335
303.15 K, x1 = 0.501	-1.29 ± 0.0287
303.15 K, x1 = 0.6025	-1.05 ± 0.0225
303.15 K, x1 = 0.702	-0.811 ± 0.0172
303.15 K, x1 = 0.7984	-0.57 ± 0.0122
323.15 K, x1 = 0.0503	-0.504 ± 0.0112
323.15 K, x1 = 0.0989	-0.911 ± 0.0196
323.15 K, x1 = 0.2028	-1.41 ± 0.0287
323.15 K, x1 = 0.3003	-1.51 ± 0.0311
323.15 K, x1 = 0.4044	-1.38 ± 0.0287
323.15 K, x1 = 0.51	-1.21 ± 0.0263
323.15 K, x1 = 0.6027	-0.938 ± 0.0201
323.15 K, x1 = 0.7018	-0.762 ± 0.0163
323.15 K, x1 = 0.7983	-0.512 ± 0.011

OCCNCCO [diethanolamine] + O
298.15 K
Conditions	excess molar enthalpy [kcal/mol]
x1 = 0.05035	-0.13 ± 0.00311
x1 = 0.1001	-0.266 ± 0.00574
x1 = 0.1989	-0.41 ± 0.00884
x1 = 0.2023	-0.415 ± 0.00884
x1 = 0.2958	-0.484 ± 0.0103
x1 = 0.3428	-0.494 ± 0.0105
x1 = 0.3974	-0.491 ± 0.0105
x1 = 0.4915	-0.465 ± 0.01
x1 = 0.599	-0.38 ± 0.00813
x1 = 0.7038	-0.304 ± 0.00645
x1 = 0.795	-0.223 ± 0.00478
x1 = 0.9029	-0.0989 ± 0.00215

OCCN(CCO)CCO [triethanolamine] + O
Conditions	excess molar enthalpy [kcal/mol]
303.15 K, x1 = 0.0473	-0.128 ± 0.00287
303.15 K, x1 = 0.1013	-0.222 ± 0.00478
303.15 K, x1 = 0.2063	-0.308 ± 0.00669
303.15 K, x1 = 0.3064	-0.334 ± 0.00717
303.15 K, x1 = 0.3548	-0.335 ± 0.00717
303.15 K, x1 = 0.4076	-0.327 ± 0.00693
303.15 K, x1 = 0.4902	-0.292 ± 0.00621
303.15 K, x1 = 0.5783	-0.267 ± 0.00574
303.15 K, x1 = 0.71	-0.201 ± 0.0043
303.15 K, x1 = 0.7943	-0.145 ± 0.00311
303.15 K, x1 = 0.8959	-0.0758 ± 0.00167
323.15 K, x1 = 0.0487	-0.119 ± 0.00263
323.15 K, x1 = 0.1001	-0.207 ± 0.00454
323.15 K, x1 = 0.2028	-0.288 ± 0.00621
323.15 K, x1 = 0.3033	-0.317 ± 0.00669
323.15 K, x1 = 0.3502	-0.322 ± 0.00693
323.15 K, x1 = 0.4	-0.319 ± 0.00693
323.15 K, x1 = 0.5021	-0.279 ± 0.00598
323.15 K, x1 = 0.6021	-0.249 ± 0.00526
323.15 K, x1 = 0.6989	-0.198 ± 0.0043
323.15 K, x1 = 0.8006	-0.14 ± 0.00311
323.15 K, x1 = 0.9009	-0.0679 ± 0.00143
